Experimental data published in patent US9315811B2, “Methods for modulating kallikrein (KLKB1) expression” (Ionis Pharmaceuticals, Inc., priority 2011, dated 2016).
Oligonucleotides are written 5' to 3', each unit as a sugar letter and its base; * is a phosphorothioate linkage, no mark a phosphodiester; rarer units and linkages stand in square brackets, end groups in braces. Plain capitals give the bases only. e = 2'-O-(2-methoxyethyl) (MOE); [5mC] = 5-methylcytosine; d = 2'-deoxy (DNA)

How the values were obtained:
Kallikrein mRNA [1] = test: Liver RT-PCR analysis of kallikrein mRNA (Example 9); type: in vivo, mouse; details: for Percent inhibition of kallikrein mRNA expression compared to the untreated PBS control: all groups ISIS 461756 12.5 mg/kg twice a week, ASO 40 mg/kg or PBS s.c. twice a week 3 weeks
Experimental: (§1) One group of 8 mice was treated with 40 mg/kg ISIS 482584 administered subcutaneously twice a week for 3 weeks (weekly dose of 80 mg/kg). A second group of 8 mice was treated with 40 mg/kg of the control oligonucleotide, ISIS 141923, administered subcutaneously twice a week for 3 weeks (weekly dose of 80 mg/kg). A third group of 8 mice was treated with PBS administered subcutaneously twice a week for 3 weeks. On day 14, all the groups were treated with 12.5 mg/kg ISIS 461756 administered subcutaneously twice a week for 3 weeks (weekly dose of 25 mg/kg). A control group of mice was treated with PBS administered subcutaneously twice a week for 3 weeks but was not administered ISIS 461756.
(§2) At the end of the treatment period, all the groups were injected with 30 mg/kg of Evans Blue solution into the tail vein. The mice were sacrificed 30 min after the Evans Blue solution administration and colons, feet, ears, and intestines were harvested. The liver was also harvested for RNA analysis.
RNA was isolated from the liver for RT-PCR analysis of C1-INH and kallikrein mRNAs. The primer probe set for C1-INH is RTS3218 (forward sequence […], designated herein as SEQ ID NO: 24; reverse sequence […], designated herein as SEQ ID NO: 25; probe sequence […], designated herein as SEQ ID NO: 26). The primer probe set for kallikrein is RTS3287 (forward sequence […], designated herein as SEQ ID NO: 27; reverse sequence […], designated herein as SEQ ID NO: 28; probe sequence […], designated herein as SEQ ID NO: 29). The results are presented in Table 20 as percent inhibition compared to the PBS control not treated with ISIS 461756.

C1-INH mRNA = test: Liver RT-PCR analysis of C1-INH mRNA (Example 9); type: in vivo, mouse
Experimental: as §1, §2
RNA was isolated from the liver for RT-PCR analysis of C1-INH and kallikrein mRNAs. The primer probe set for C1-INH is RTS3218 (forward sequence […], designated herein as SEQ ID NO: 24; reverse sequence […], designated herein as SEQ ID NO: 25; probe sequence […], designated herein as SEQ ID NO: 26). […]

mouse kallikrein mRNA = test: Antisense inhibition of murine kallikrein mRNA in mouse primary hepatocytes (Example 1); type: cell-based
Experimental: Antisense oligonucleotides targeting a murine kallikrein nucleic acid were tested for their effects on kallikrein mRNA in vitro. Cultured mouse primary hepatocytes at a density of 10,000 cells per well were transfected using Cytofectin reagent with 12.5 nM, 25 nM, 50 nM, 100 nM, or 200 nM of antisense oligonucleotide. After a treatment period of approximately 24 hours, RNA was isolated from the cells and mouse kallikrein mRNA levels were measured by quantitative real-time PCR using the murine primer probe set RTS3313 (forward sequence […], designated herein as SEQ ID NO: 21; reverse sequence […], designated herein as SEQ ID NO: 22; probe sequence […], designated herein as SEQ ID NO: 23). Kallikrein mRNA levels were adjusted according to total RNA content, as measured by RIBOGREEN.
The chimeric antisense oligonucleotides were designed as 5-10-5 MOE gapmers. The gapmers are 20 nucleotides in length, wherein the central gap segment is comprised of ten 2′-deoxynucleosides and is flanked on both sides (in the 5′ and 3′ directions) by wings comprising five nucleosides each. Each nucleoside in the 5′ wing segment and each nucleoside in the 3′ wing segment has a 2′-MOE modification. The internucleoside linkages throughout each gapmer are phosphorothioate (P═S) linkages. All cytosine residues throughout each gapmer are 5-methylcytosines.
ISIS 482584 ([…]; incorporated herein as SEQ ID NO: 40), which was one of the antisense oligonucleotides tested in the assay, is targeted to SEQ ID NO: 11 (GENBANK Accession No. NM_008455.2) with a target start site of 1586 and a target stop site of 1605.

Kallikrein mRNA [2] = test: Kallikrein mRNA and protein expression in mice after subcutaneous ASO (Example 1); type: in vivo, mouse; details: 3 weeks
Experimental: C57BL/6J-Tyrc-2J mice were treated with 2.5 mg/kg, 5.0 mg.kg, 10.0 mg/kg, 20.0 mg/kg, 40.0 mg/kg, or 80.0 mg/kg (corresponding to 5.0 mg/kg, 10.0 mg/kg, 20.0 mg/kg, 40 mg/kg, 80 mg/kg, or 160 mg/kg per week) of ISIS 482584 administered subcutaneously twice a week for 3 weeks. […] Kallikrein mRNA was reduced by greater than 90% inhibition at a dose of 160 mg/kg per week.

[3] = system: high molecular weight kininogen (HMWK); test: Western blot quantification of HMWK and HMWK cleavage product by densitometer (Example 5); type: in vivo, mouse; details: vs PBS control, dose-dependent
Experimental: All the groups were then injected with 30 mg/kg of Evans Blue solution in the tail vein. The mice were sacrificed 30 min after the Evans Blue solution administration and colons, feet, and ears were harvested and examined for permeability defects. Blood samples were taken through cardiac puncture.
Treatment with kallikrein antisense oligonucleotide results in stabilization of HMWK. Thus, vascular permeability is reduced in ISIS 482584-treated groups in a dose-dependent manner. […] Thus, reduced HMWK is caused by kallikrein cleavage of HMWK into cleavage products (including bradykinin and HKa). Data are presented in Intensity Units as measured by densitometer.

mice = test: Evans Blue vascular permeability induced by ISIS 461756 (Example 9); details: mouse, in vivo
Experimental: Vascular permeability induced by ISIS 461756, an antisense oligonucleotide which targets murine C1 inhibitor mRNA, increases vascular permeability in mice and replicates the pathology of hereditary angioedema. The effect of ISIS 482584 on this model was evaluated.
as §1
At the end of the treatment period, all the groups were injected with 30 mg/kg of Evans Blue solution into the tail vein. […]
The harvested tissues from the feet, colon, and intestines were placed in formamide solution overnight to leach out the Evans Blue dye. […] The color intensity of the dye-infused formamide solution was then measured at OD600nm. […]

Row | Substance | Percent inhibition of kallikrein mRNA expression compared to the untreated PBS control (Kallikrein mRNA [1]) | C1-INH mRNA expression (C1-INH mRNA) | % inhibition (mouse kallikrein mRNA; 12.5 nM) | % inhibition (mouse kallikrein mRNA; 25.0 nM) | % inhibition (mouse kallikrein mRNA; 50.0 nM) | % inhibition (mouse kallikrein mRNA; 100.0 nM) | % inhibition (mouse kallikrein mRNA; 200.0 nM) | Kallikrein mRNA inhibition (Kallikrein mRNA [2]; 160 mg/kg per week s.c.) | Kallikrein mRNA and protein expression (Kallikrein mRNA [2]; 5.0-160 mg/kg per week s.c.) | HMWK levels [3] | kallikrein expression (Kallikrein mRNA [1]) | vascular permeability induced by ISIS 461756 (mice)
1 | ISIS 141923: control oligonucleotide, a 5-10-5 MOE gapmer with no known murine target; CCTTCCCTGAAGGTTCCTCC (SEQ ID NO: 42) (sugars from the 5' end e5 d10 e5, backbone and methylation of C not given here) [reference compound] | 0% | – | – | – | – | – | – | – | – | – | – | –
2 | ISIS 461756: 5-10-5 MOE gapmer antisense oligonucleotide which targets murine C1 inhibitor mRNA; AAAGTGGTTGATACCCTGGG (SEQ ID NO: 41) (sugars from the 5' end e5 d10 e5, backbone and methylation of C not given here) [reference compound] | 0% | significantly reduced | – | – | – | – | – | – | – | – | – | –
3 | ISIS 482584: 5-10-5 MOE gapmer antisense oligonucleotide targeting murine kallikrein; GGCATATTGGTTTTTGGAAT (SEQ ID NO: 40) (antisense eG*eG*e[5mC]*eA*eT*dA*dT*dT*dG*dG*dT*dT*dT*dT*dT*eG*eG*eA*eA*eT) | 78% | – | 0% | 36% | 17% | 60% | 83% | greater than 90% | reduced in a dose dependent manner | higher levels of HMWK | significantly reduced | prevented vascular permeability
